This note sets out measurements from US20250145585A1, “HETEROCYCLIC INHIBITORS OF IGF-1R FOR TREATMENT OF DISEASE” (HORIZON THERAPEUTICS IRELAND DAC, priority 2023, published 2025).

As usually defined, the IC50 is the concentration that gives 50% inhibition.

The target in assay [1] is T1, IGF-1R (Homo sapiens, UniProt P08069).
T1 construct: expressed in transfected cells
The assay can be described thus: Example B-1: IGF-1R Assay (PC3 cells stimulated with IGF1, AlphaLISA on cell lysates). The assay is classed as cell-based. To be noted: compound two hours, IGF1 200 ng/mL for 30 min, read-out: IC50, Biological Activity against IGF-1R (Table B1). The procedure:
50K PC3 cells were seeded on day 1 in 50 μL of media in 96-well plate and incubated overnight at 37° C., 5% CO2. On day 2, all cells were expected to be at 80-90% confluency. Cells were starved for two hours by changing the media to 90 μL of EMEM serum-free media and incubated for 2 hours. Next, cells were treated with 10 μL of 10× concentrated and 3× serially diluted compounds for two hours. It makes 1× of compounds in 100 μL media. This was followed by stimulation of cells with 11×IGF1 for 30 min in 10 μL of serum-free EMEM media at the final concentration of 200 ng/mL.
The media was removed and replaced by 50 μL of 1× lysis buffer from the AlphaLISA kit (with 1× of cOmplete™ protease inhibitor). The plates were sealed, and cells were allowed to lyse for 10 min in the shaker before storing the plate at −20° C. until used. The AlphaLISA assay with processed cell lysates were performed as described in the protocol. Briefly, 10 μL of the undiluted sample were loaded to 384 well Optiplates and 5 μL of the acceptor mix (as described in the AlphaLISA kit) was added to each well. The plates were sealed and briefly vortexed followed by the incubation at RT for 3 hours. In the dark, 5 μL of donor mix was added to each well. All plates were sealed and stored at RT overnight. The plates were read in EnVision reader using standard AlphaLISA settings.
Compound activity was analyzed using CBIS data analysis suite (Cheminnovation, CA). Percentage inhibition was calculated using the following formula: % I-hibition=100%×(1−(mea−RLU of test sample−mean RLU of vehicle control)/(mean-RLU of EC80 control−mean RLU of vehicle control)). The activity for representative examples of the invention is shown in the following table, wherein A: IC50≤500 nM; B: 500 nM<IC50≤2 μM; C: 2 μM<IC50≤10 μM; D: IC50>10 μM.
(In Alpha technology, singlet oxygen from a donor bead excites a nearby acceptor bead.)

The target in assay [2] is T1, IGF-1R. The assay can be described thus: Example B-2: IGF-1R Assay (PathHunter cell lines, EC80 agonist challenge, chemiluminescent detection). The assay is classed as cell-based. To be noted: PathHunter cells, compound 60 minutes at 37° C., EC80 agonist 3 hours; read-out: IC50, Biological Activity against IGF-1R (Table B2). In a few lines: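 PathHunter cells were pre-incubated with compound for 60 min at 37° C (1% vehicle), then challenged with EC80 agonist for 3 h at room temperature. Chemiluminescent detection after 1 h gave % inhibition relative to EC80 and vehicle controls, from which IC50 was derived.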

Bounds are passed on as bounds.

T1 sequence (P08069 31-1367): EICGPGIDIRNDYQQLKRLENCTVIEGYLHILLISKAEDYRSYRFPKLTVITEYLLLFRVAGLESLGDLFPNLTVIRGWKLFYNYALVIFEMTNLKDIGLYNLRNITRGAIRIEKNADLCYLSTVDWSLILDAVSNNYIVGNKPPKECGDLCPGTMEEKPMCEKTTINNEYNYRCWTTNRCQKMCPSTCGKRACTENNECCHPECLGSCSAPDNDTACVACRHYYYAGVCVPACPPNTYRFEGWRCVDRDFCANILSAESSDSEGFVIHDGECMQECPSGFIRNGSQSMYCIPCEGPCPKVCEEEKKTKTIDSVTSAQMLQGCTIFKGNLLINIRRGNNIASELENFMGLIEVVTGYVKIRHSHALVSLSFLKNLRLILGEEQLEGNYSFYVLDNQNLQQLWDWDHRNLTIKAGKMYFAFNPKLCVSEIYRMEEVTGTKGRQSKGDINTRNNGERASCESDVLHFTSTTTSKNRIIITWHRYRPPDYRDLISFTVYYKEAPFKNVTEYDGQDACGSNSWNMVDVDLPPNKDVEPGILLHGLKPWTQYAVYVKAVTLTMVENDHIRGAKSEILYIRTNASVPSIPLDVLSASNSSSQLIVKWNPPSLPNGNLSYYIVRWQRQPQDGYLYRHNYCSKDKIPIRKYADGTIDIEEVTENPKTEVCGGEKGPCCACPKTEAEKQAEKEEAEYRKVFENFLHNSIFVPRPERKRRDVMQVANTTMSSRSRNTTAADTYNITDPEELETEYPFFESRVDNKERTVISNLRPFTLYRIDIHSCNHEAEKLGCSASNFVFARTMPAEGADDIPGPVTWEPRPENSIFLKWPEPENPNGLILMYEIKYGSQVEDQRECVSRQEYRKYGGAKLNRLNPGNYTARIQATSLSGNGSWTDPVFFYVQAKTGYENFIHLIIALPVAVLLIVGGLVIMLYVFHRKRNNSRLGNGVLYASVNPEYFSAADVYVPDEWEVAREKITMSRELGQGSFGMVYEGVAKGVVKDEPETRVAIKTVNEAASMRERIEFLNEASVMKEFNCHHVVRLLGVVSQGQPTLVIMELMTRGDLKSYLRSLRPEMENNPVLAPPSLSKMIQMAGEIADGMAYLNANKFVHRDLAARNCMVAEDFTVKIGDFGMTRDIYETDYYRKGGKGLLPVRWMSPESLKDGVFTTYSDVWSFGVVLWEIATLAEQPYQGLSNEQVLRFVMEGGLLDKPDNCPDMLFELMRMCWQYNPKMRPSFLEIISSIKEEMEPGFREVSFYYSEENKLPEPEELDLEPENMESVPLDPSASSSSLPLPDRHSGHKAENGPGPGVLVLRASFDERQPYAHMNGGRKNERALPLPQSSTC

In the case of `CC1(C)C(=O)N(c2ccc(SC(F)(F)F)cc2)C(=O)N1Cc1ccnc(NC(=O)NC2CCN(CC(F)(F)F)CC2)c1` [Compound 307, 1-(4-((5,5-dimethyl-2,4-dioxo-3-(4-((trifluoromethyl)thio)phenyl)imidazolidin-1-yl)methyl)pyridin-2-yl)-3-(1-(2,2,2-trifluoroethyl)piperidin-4-yl)urea], the half-maximal inhibitory concentration (IC50) in assay [1] is not above 500 nM. For the compound `CC1(C)C(=O)N(c2ccc(SC(F)(F)F)cc2)C(=O)N1Cc1ccnc(NCC2CC2)c1` [Compound 311, 1-((2-((cyclopropylmethyl)amino)pyridin-4-yl)methyl)-5,5-dimethyl-3-(4-((trifluoromethyl)thio)phenyl) imidazolidine-2,4-dione], the concentration for half-maximal inhibition (IC50) in assay [1] is not above 500 nM. As for `CN(C)C(=O)c1cncc(Nc2cc(CN3C(=O)N(c4ccc(SC(F)(F)F)cc4)C(=O)C3(C)C)ccn2)c1` [Compound 359, 5-((4-((5,5-dimethyl-2,4-dioxo-3-(4-((trifluoromethyl)thio)phenyl)imidazolidin-1-yl)methyl)pyridin-2-yl)amino)-N,N-dimethylnicotinamide], the IC50 in assay [1] was not above 500 nM.

Turning to `Cc1cccc(NC(=O)Nc2cc(CN3C(=O)N(c4ccc(SC(F)(F)F)cc4)C(=O)C3(C)C)ccn2)c1` [Compound 372, 1-(4-((5,5-dimethyl-2,4-dioxo-3-(4-((trifluoromethyl)thio)phenyl)imidazolidin-1-yl)methyl)pyridin-2-yl)-3-(m-tolyl)urea], the half-inhibitory concentration (IC50) in assay [1] is not above 500 nM.

For the compound `CC1(C)C(=O)N(c2ccc(-c3nccs3)cc2)C(=O)N1Cc1ccnc(N)c1` [Compound 81, 1-((2-aminopyridin-4-yl)methyl)-5,5-dimethyl-3-(4-(thiazol-2-yl)phenyl)imidazolidine-2,4-dione], in assay [1], the IC50 fell in the range of 2000 to 10000 nM.

Turning to `COc1ccc(NC(=O)Nc2cc(CN3C(=O)N(c4ccc(SC(F)(F)F)cc4)C(=O)C3(C)C)ccn2)cc1` [Compound 363, 1-(4-((5,5-dimethyl-2,4-dioxo-3-(4-((trifluoromethyl)thio)phenyl)imidazolidin-1-yl)methyl)pyridin-2-yl)-3-(4-methoxyphenyl)urea], the IC50 in assay [1] is not above 500 nM. For `CC(C)Nc1cc(CN2C(=O)N(c3ccc(C(C)(C)C)cc3)C(=O)C2(C)C)ccn1` [Compound 263, 3-(4-(tert-butyl)phenyl)-1-((2-(isopropylamino)pyridin-4-yl)methyl)-5,5-dimethylimidazolidine-2,4-dione], in assay [1], the half-maximal inhibitory concentration (IC50) was not above 500 nM. Same read-out and setting: the value for `CCc1cn(C)c2cc(N3C(=O)N(Cc4ccnc(NC(C)C)c4)C(C)(C)C3=O)ccc12` [Compound 257, 3-(3-ethyl-1-methyl-1H-indol-6-yl)-1-((2-(isopropylamino)pyridin-4-yl)methyl)-5,5-dimethylimidazolidine-2,4-dione] was 500 to 2000 nM.

For `CC1(C)C(=O)N(c2ccc(C(F)(F)F)c(C#N)c2)C(=O)N1Cc1ccnc(N[C@H]2[C@@H]3COC[C@@H]32)c1` [Compound 180, 5-(3-((2-(((1R,5S,6r)-3-oxabicyclo[3.1.0]hexan-6-yl)amino)pyridin-4-yl)methyl)-4,4-dimethyl-2,5-dioxoimidazolidin-1-yl)-2-(trifluoromethyl)benzonitrile], the half-maximal inhibitory concentration (IC50) in assay [2] was more than 10000 nM.

Consider `CC1(C)C(=O)N(c2ccc(C3(C#N)CC3)cc2)C(=O)N1Cc1ccnc2c1CC(=O)N2` [Compound 64, 1-(4-(4,4-dimethyl-2,5-dioxo-3-((2-oxo-2,3-dihydro-1H-pyrrolo[2,3-b]pyridin-4-yl)methyl)imidazolidin-1-yl)phenyl)cyclopropane-1-carbonitrile], for which, in assay [2], the IC50 was in the range of 500 to 2000 nM. `CC1(C)C(=O)N(c2ccc3c(c2)N(S(C)(=O)=O)CC32CC2)C(=O)N1Cc1ccnc(N[C@H]2[C@@H]3COC[C@@H]32)c1` [Compound 222, 1-((2-(((1R,5S,6r)-3-oxabicyclo[3.1.0]hexan-6-yl)amino)pyridin-4-yl)methyl)-5,5-dimethyl-3-(1′-(methylsulfonyl)spiro[cyclopropane-1,3′-indolin]-6′-yl)imidazolidine-2,4-dione]: in assay [2], the IC50 is not above 500 nM. For `CC1(C)C(=O)N(c2ccc(S(=O)(=O)C(F)(F)F)cc2)C(=O)N1Cc1ccnc(N[C@H]2CCOC2)c1` [Compound 320, (S)-5,5-dimethyl-1-((2-((tetrahydrofuran-3-yl)amino)pyridin-4-yl)methyl)-3-(4-((trifluoromethyl)sulfonyl)phenyl) imidazolidine-2,4-dione], in assay [2], the 50% inhibitory concentration (IC50) is not above 500 nM.

With `CC(C)c1ccc(N2C(=O)N(Cc3ccnc(N[C@H]4[C@@H]5COC[C@@H]54)c3)C(C)(C)C2=O)cc1OCCN(C)C` [Compound 280, 1-((2-(((1R,5S,6r)-3-oxabicyclo[3.1,0]hexan-6-yl)amino)pyridin-4-yl)methyl)-3-(3-(2-(dimethylamino)ethoxy)-4-isopropylphenyl)-5,5-dimethylimidazolidine-2,4-dione], in assay [2], the IC50 was not above 500 nM. As to `CC1(C)C(=O)N(c2ccc(S(=O)(=O)C(F)(F)F)cc2)C(=O)N1Cc1ccnc(NC2CCN(S(C)(=O)=O)CC2)c1` [Compound 322, 5,5-dimethyl-1-((2-((1-(methylsulfonyl)piperidin-4-yl)amino)pyridin-4-yl)methyl)-3-(4-((trifluoromethyl)sulfonyl)phenyl) imidazolidine-2,4-dione], the IC50 in assay [2] is 500 to 2000 nM.

With `COC[C@@H](C)Nc1cc(CN2C(=O)N(c3ccc4c(c3)OCC4(C)C)C(=O)C2(C)C)ccn1` [Compound 198, (R)-3-(3,3-dimethyl-2,3-dihydrobenzofuran-6-yl)-1-((2-((1-methoxypropan-2-yl)amino)pyridin-4-yl)methyl)-5,5-dimethylimidazolidine-2,4-dione], in assay [2], the half-maximal inhibitory concentration (IC50) is not above 500 nM.

For `C[C@H](Nc1cc(CN2C(=O)N(c3ccc(S(=O)(=O)C(F)(F)F)cc3)C(=O)C2(C)C)ccn1)[C@@H]1CCCO1` [Compound 339, 5,5-dimethyl-1-((2-(((S)-1-((S)-tetrahydrofuran-2-yl)ethyl)amino)pyridin-4-yl)methyl)-3-(4-((trifluoromethyl)sulfonyl)phenyl) imidazolidine-2,4-dione], the IC50 in assay [2] lay in the range of 500 to 2000 nM. The same measure, in the same setting: under `CC1(Nc2cc(CN3C(=O)N(c4ccc(C(C)(C)C#N)cc4)C(=O)C3(C)C)ccn2)CC1` [Compound 155, 2-(4-(4,4-dimethyl-3-((2-((1-methylcyclopropyl)amino)pyridin-4-yl)methyl)-2,5-dioxoimidazolidin-1-yl)phenyl)-2-methylpropanenitrile] stands not above 500 nM; under `CC1(C)CN(C(=O)C2CC2)c2cc(N3C(=O)N(Cc4ccnc5c4CC(=O)N5)C(C)(C)C3=O)ccc21` [Compound 39, 3-(1-(cyclopropanecarbonyl)-3,3-dimethylindolin-6-yl)-5,5-dimethyl-1-((2-oxo-2,3-dihydro-1H-pyrrolo[2,3-b]pyridin-4-yl)methyl)imidazolidine-2,4-dione], not above 500 nM; under `CC(C)(C#N)c1ccc(N2C(=O)N(Cc3ccnc(NCC(F)F)c3)C(C)(C)C2=O)cc1` [Compound 154, 2-(4-(3-((2-((2,2-difluoroethyl)amino)pyridin-4-yl)methyl)-4,4-dimethyl-2,5-dioxoimidazolidin-1-yl)phenyl)-2-methylpropanenitrile], 500 to 2000 nM. On to `C[C@H]1CNc2nccc(CN3C(=O)N(c4ccc(C5(C(F)(F)F)CC5)cc4)C(=O)C3(C)C)c2O1` [Compound 28, (S)-5,5-dimethyl-1-((2-methyl-3,4-dihydro-2H-pyrido[3,2-b][1,4]oxazin-8-yl)methyl)-3-(4-(1-(trifluoromethyl)cyclopropyl)phenyl) imidazolidine-2,4-dione], for which, in assay [2], the IC50 is not above 500 nM. For the compound `CC1(C)CN(S(C)(=O)=O)c2cc(N3C(=O)N(Cc4ccnc(N[C@H]5CCOC[C@@H]5F)c4)C(C)(C)C3=O)ccc21` [Compound 241, 3-(3,3-dimethyl-1-(methylsulfonyl)indolin-6-yl)-1-((2-(((3R,4S)-3-fluorotetrahydro-2H-pyran-4-yl)amino)pyridin-4-yl)methyl)-5,5-dimethylimidazolidine-2,4-dione], in assay [2], the concentration for half-maximal inhibition (IC50) was not above 500 nM.

Consider `COCCC(C)Nc1cc(CN2C(=O)N(c3ccc(C(C)(C)C#N)cc3)C(=O)C2(C)C)ccn1` (stereo not shown) [Compound 156, 2-(4-(3-((2-((4-methoxybutan-2-yl)amino)pyridin-4-yl)methyl)-4,4-dimethyl-2,5-dioxoimidazolidin-1-yl)phenyl)-2-methylpropanenitrile], for which the IC50 in assay [2] is not above 500 nM.
